Test results as given in ChEMBL document CHEMBL5214979 (J Med Chem, 2022).

What was measured:
[1] = Upregulation of BCAA expression in human MDA-MB-231 cells; assay type: functional, cell-based
[2] = Apparent permeability of the compound from apical to basolateral side in human Caco-2 cells incubated for 2 hrs by LC-MS/MS analysis; details: caco-2, 2 h
[3] = target: T1, Branched-chain-amino-acid aminotransferase, mitochondrial (Homo sapiens, UniProt O15382); experiment: Inhibition of human recombinant BCAT2 using leucine and alpha-KG as substrate in presence of NADH by fluorescence assay
T1 sequence (O15382 whole entry): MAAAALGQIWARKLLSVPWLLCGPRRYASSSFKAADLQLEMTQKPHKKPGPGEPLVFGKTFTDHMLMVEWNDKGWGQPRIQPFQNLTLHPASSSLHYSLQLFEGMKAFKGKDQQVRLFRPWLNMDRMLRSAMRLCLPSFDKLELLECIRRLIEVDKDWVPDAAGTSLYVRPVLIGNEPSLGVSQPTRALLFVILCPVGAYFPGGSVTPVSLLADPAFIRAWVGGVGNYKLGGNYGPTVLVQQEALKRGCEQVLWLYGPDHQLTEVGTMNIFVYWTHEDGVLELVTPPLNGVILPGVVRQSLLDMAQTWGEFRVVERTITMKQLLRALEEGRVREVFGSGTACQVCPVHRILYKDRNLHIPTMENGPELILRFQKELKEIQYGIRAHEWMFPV

[4] = target: T2, Branched-chain-amino-acid aminotransferase, cytosolic (Homo sapiens, UniProt P54687); experiment: biochemical
T2 sequence (P54687 whole entry): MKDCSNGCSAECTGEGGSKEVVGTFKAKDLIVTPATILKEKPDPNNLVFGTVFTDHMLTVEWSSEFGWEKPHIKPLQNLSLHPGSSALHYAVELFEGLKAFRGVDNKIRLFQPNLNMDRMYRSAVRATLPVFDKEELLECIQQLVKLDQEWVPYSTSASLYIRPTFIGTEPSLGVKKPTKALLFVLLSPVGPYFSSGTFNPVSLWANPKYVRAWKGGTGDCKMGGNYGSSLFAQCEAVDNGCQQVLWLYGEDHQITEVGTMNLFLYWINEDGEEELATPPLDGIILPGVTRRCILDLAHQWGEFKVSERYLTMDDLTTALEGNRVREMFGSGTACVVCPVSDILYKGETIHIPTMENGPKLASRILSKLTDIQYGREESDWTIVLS
Description: Inhibition of N-terminal his-tagged human recombinant BCAT1 expressed in Escherichia coli BL21(DE3) cells using leucine and alpha-KG as substrate in presence of NADH by fluorescence assay

[5] = Metabolic stability in human liver microsomes assessed as blood clearance incubated upto 60 mins by LC-MS/MS analysis; assay type: ADME, Microsome
[6] = Lipophilicity, logD of compound at pH 7.5; assay type: physicochemical; details: buffer
[7] = Apparent permeability of the compound from basolateral to apical side in human Caco-2 cells incubated for 2 hrs by LC-MS/MS analysis; assay type: ADME, cell-based; details: caco-2, 2 h
[8] = Aqueous solubility of compound in PBS buffer at pH 6.5 incubated for 24 hrs by HPLC-UV analysis; assay type: physicochemical; details: pH 6.5, 24 h
[9] = Metabolic stability in human liver microsomes assessed as maximal oral bioavailability incubated upto 60 mins by LC-MS/MS analysis; assay type: ADME, Microsome
[10] = Metabolic stability in Wistar Han rat hepatocyte assessed as blood clearance at 1 uM incubated upto 90 mins by LC-MS/MS analysis; assay type: ADME, cell-based; details: hepatocytes

| Compound | Papp [2] [×10⁻⁶ cm/s] | further results |
| --- | --- | --- |
| CCCc1cc(=O)n2nc(NCc3c(F)cc(Cl)cc3F)c(C#N)c2[nH]1 | – | IC50 [1]: 564 µM |
| COc1cc(C#N)c(Oc2ccccc2C)cc1-n1c(=O)cc(C(F)(F)c2ccccc2)[nH]c1=O | 32.9 | – |
| COc1cc(C#N)c(Oc2ccccc2C)cc1-n1c(=O)cc(C(F)(F)Cl)[nH]c1=O | 3 | – |
| COc1cc(C#N)c(Oc2ccccc2C)cc1-n1c(=O)cc(S(C)(=O)=O)[nH]c1=O | 2.9 | – |
| N#Cc1cc(F)c(-n2c(=O)cc(C(F)(F)F)[nH]c2=O)cc1Oc1ccccc1 | – | IC50 [3]: 13.4 µM |
| COc1cc(C#N)c(Oc2ccccc2C)cc1-n1c(=O)cc(C(F)(F)C(F)(F)F)[nH]c1=O | 3.3 | – |
| COc1cc(OC)c(-n2c(=O)cc(C(F)(F)F)[nH]c2=O)cc1Cl | – | IC50 [3]: 20 µM; IC50 [4]: 3.3 µM |
| COc1cc(Cl)c(Oc2ccccc2C)cc1-n1c(=O)cc(C(F)(F)F)[nH]c1=O | 19.9 | – |
| COc1cc(C#N)c(Oc2ccccc2C)cc1-n1c(=O)cc(C(F)(F)F)[nH]c1=O | 2.3 | – |
| Cc1ccccc1Oc1cc(-n2c(=O)cc(C(F)(F)F)[nH]c2=O)c(C)cc1C#N | 4.8 | – |
| CNC(=O)c1ccn2c(-n3c(=O)cc(C(F)(F)F)[nH]c3=O)c(-c3ccccn3)nc2c1 | – | IC50 [4]: 0.85 µM |
| COc1cc(C#N)c(Oc2ccccc2C)cc1-n1c(=O)cc(S(=O)(=O)c2ccccc2)[nH]c1=O | 0.05 | – |
| COc1cc(C#N)c(Oc2ccccc2C)cc1-n1c(=O)cc(-c2ccccc2)[nH]c1=O | 28.4 | – |
| COc1cc(C#N)c(Oc2ccccc2C)cc1-n1c(=O)cc(Br)[nH]c1=O | 7.1 | – |
| Cc1ccccc1Oc1cc(-n2c(=O)cc(C(F)(F)F)[nH]c2=O)c(F)cc1C#N | – | IC50 [3]: 13.3 µM |
| COc1cc(C#N)c(Oc2ccccc2C)cc1-n1c(=O)cc(C(N)=O)[nH]c1=O | 1.1 | – |
| Cc1ccccc1Oc1cc(-n2c(=O)cc(C(F)(F)F)[nH]c2=O)c2ccccc2c1 [BAY-771] | 27.5 | CLhep predicted [5]: 13.2 mL/min/kg; logD [6]: 2.2; Papp [7]: 17.1 ×10⁻⁶ cm/s; solubility [8]: > 412 µg/mL; Fh at 1 h [9]: 40%; CLhep predicted at […], 1 µM [10]: 41.7 mL/min/kg |
